# Assay results published in patent US5256671A, “Azabicyclic compounds, pharmaceutical compositions containing them and their use in therapy” (Merck Sharp & Dohme, Limited, priority 1992, dated 1993).
# Structures can show the parent of a compound that is named as a salt.
# Biological target: T1, human neurokinin-1-receptor (NK1R) (Homo sapiens, UniProt P25103)
# T1 construct: expressed in transfected cells
# Assay: Substance P antagonism assay: 125I-substance P binding to human NK1R expressed in COS or CHO cells
# Details: 125I-SP displacement, read-out: IC50 @ NK1R
# Procedure: To express the cloned human neurokinin-1-receptor (NK1R) transiently in COS, the cDNA for the human NK1R was cloned into the expression vector pCDM9 which was derived from pCDM8 (INVITROGEN) by inserting the ampicillin resistance gene (nucleotide 1973 to 2964 from BLUESCRIPT SK+ (trademark, STRATAGENE, La Jolla, Calif., USA)) into the Sac II site. Transfection of 20 ug of the plasmid DNA into 10 million COS cells was achieved by electroporation in 800 μl of transfection buffer (135 mM NaCl, 1.2 mM CaCl2, 1.2 mM MgCl2, 2.4 mM K2 HPO4, 0.6 mM KH2 PO4, 10 mM glucose, 10 mM N-2-hydroxyethyl-piperazine-N'-2-ethane […] (HEPES) pH 7.4) at 260 V and 950 μF using the IBI GENEZAPPER (trademark IBI, New Haven, Conn., USA). The cells were incubated in 10% fetal calf serum, 2 mM glutamine, 100 U/ml penicillin-streptomycin, and 90% DMEM media (GIBCO, Grand Island, N.Y., USA) in 5% CO2 at 37° C. for three days before the binding assay.
# To establish a stable cell line expressing cloned human […], the cDNA was subcloned into the vector pRcCMV (INVITROGEN). Transfection of 20 ug of the plasmid DNA into CHO cells was achieved by electroporation in 800 μl of transfection buffer supplemented with 0.625 mg/ml Herring sperm DNA at 300 V and 950 μF using the IBI GENEZAPPER (IBI). The transfected cells were incubated in CHO media [10% fetal calf serum, 100 U/ml penicillin-streptomycin, 2 mM glutamine, 1/500 hypoxanthine-thymidine (ATCC), 90% IMDM media (JRH BIOSCIENCES, Lenexa, Kans. USA), 0.7 mg/ml G418 (GIBCO)] in 5% CO2 at 37° C. until colonies were visible. Each colony was separated and propagated. The cell clone with the highest number of human NK1R was selected for subsequent applications such as drug screening.
# The binding assay of human NK1R expressed in either COS or CHO cells is based on the use of ^125 I-substance P (^125 I-SP, from DU PONT, Boston, Mass.) as a radioactively labeled ligand which competes with unlabeled substance P or any other ligand for binding to the human NK1R. Monolayer cell cultures of COS or CHO were dissociated by the non-enzymatic solution (SPECIALTY MEDIA, Lavellette, N.J.) and resuspended in appropriate volume of the binding buffer (50 mM Tris pH 7.5, 5 mM MnCl2, 150 mM NaCl, 0.04 mg/ml bacitracin, 0.004 mg/ml leupeptin, 0.2 mg/ml BSA, 0.01 mM phosphoramidon) such that 200 μl of the cell suspension would give rise to about 10,000 cpm of specific ^125 I-SP binding (approximately 50,000 to 200,000 cells). In the binding assay, 200 μl of cells were added to a tube containing 20 μl of 1.5 to 2.5 nM of ^125 I-SP and 20 μl of unlabeled substance P or any other test compound. The tubes were incubated at 4° C. or at room temperature for 1 hour with gentle shaking. The bound radioactivity was separated from unbound radioactivity by GF/C filter (BRANDEL, Gaithersburg, Md.) which was pre-wetted with 0.1% polyethylenimine. The filter was washed with 3 ml of wash buffer (50 mM Tris pH 7.5, 5 mM MnCl2, 150 mM NaCl) three times and its radioactivity was determined by gamma counter.
# T1 sequence (P25103 whole entry): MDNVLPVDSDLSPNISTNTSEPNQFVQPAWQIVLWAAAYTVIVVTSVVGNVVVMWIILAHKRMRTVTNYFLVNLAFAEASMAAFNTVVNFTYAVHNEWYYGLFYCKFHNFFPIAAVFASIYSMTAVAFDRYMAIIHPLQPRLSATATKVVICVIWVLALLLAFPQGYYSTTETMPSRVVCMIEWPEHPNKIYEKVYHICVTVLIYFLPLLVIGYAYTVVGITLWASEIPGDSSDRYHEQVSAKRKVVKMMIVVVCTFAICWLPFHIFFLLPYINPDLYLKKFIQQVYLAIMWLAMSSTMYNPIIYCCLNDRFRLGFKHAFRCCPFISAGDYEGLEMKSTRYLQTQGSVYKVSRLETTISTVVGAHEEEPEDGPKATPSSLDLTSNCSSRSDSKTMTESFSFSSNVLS
row,Compound,IC50 [nM]
1,"FC(C=C1C2CCN(CC2)C1C(c1ccccc1)c1ccccc1)c1cc(C(F)(F)F)cc(C(F)(F)F)c1 (single isomer, unassigned; isomer a) [Example 10, E-3-[Methylene-2-(3,5-bistrifluoromethyl)fluoromethyl]-2-benzhydrylquinuclidine (Isomer A) oxalate salt]",5
2,"OC(C=C1C2CCN(CC2)C1C(c1ccccc1)c1ccccc1)c1cc(C(F)(F)F)cc(C(F)(F)F)c1 (single isomer, unassigned) [9 (ISOMER A), E-3-[Methylene-2-(3,5-bistrifluoromethyl)hydroxymethyl]-2-benzhydrylquinuclidine]",0.9
3,"Cc1cccc(C)c1C(O)C=C1C2CCN(CC2)C1C(c1ccccc1)c1ccccc1 (stereo not drawn) [Example 14, E[3-Methylene(2,6-dimethylphenyl)hydroxymethyl]-2-benzhydryl quinuclidine]",90
4,"OC(C=C1C2CCN(CC2)C1Cc1ccccc1)c1cc(C(F)(F)F)cc(C(F)(F)F)c1 (single isomer, unassigned) [15 (DIASTEREOMER B), E-3-[Methylene-(3,5-bistrifluoromethylphenyl)hydroxymethyl]-2-benzyl quinuclidine]",6
5,"O=C(C=C1C2CCN(CC2)C1C(c1ccccc1)c1ccccc1)c1cc(C(F)(F)F)cc(C(F)(F)F)c1 (stereo not drawn) [Example 7, E-3-[Methylene(3,5-bistrifluoromethylphenyl)oxo]-2-benzhydryl quinuclidine]",> 300
6,"FC(F)(F)c1cccc(CC=C2C3CCN(CC3)C2C(c2ccccc2)c2ccccc2)c1 (stereo not drawn) [Example 6, E-3-[Methylene(3-trifluoromethyl)benzyl]-2-benzhydryl quinuclidine]",100
7,"O=C(C=C1C2CCN(CC2)C1C(c1ccccc1)c1ccccc1)c1ccccc1 (stereo not drawn) [Example 8, E-3-[Methyleneketophenyl]-2-benzhydrylquinuclidine]",190
8,"FC(C=C1C2CCN(CC2)C1C(c1ccccc1)c1ccccc1)c1cc(C(F)(F)F)cc(C(F)(F)F)c1 (single isomer, unassigned; isomer b) [Example 11, E-3-[Methylene-2-(3,5-bistrifluoromethyl)fluoromethyl]-2-benzhydrylquinuclidine (Isomer B)]",9
9,"Cc1cc(C)cc(C(=O)C=C2C3CCN(CC3)C2C(c2ccccc2)c2ccccc2)c1 (stereo not drawn) [Example 12, E-3-[Methylene-2-keto(3,5-dimethyl)phenyl]-2-benzhydryl quinuclidine]",140
10,"OC(C=C1C2CCN(CC2)C1Cc1ccccc1)c1cc(C(F)(F)F)cc(C(F)(F)F)c1 (single isomer, unassigned) [15 (DIASTEREOMER A), E-3-[Methylene-(3,5-bistrifluoromethylphenyl)hydroxymethyl]-2-benzyl quinuclidine]",63
11,"OC(C=C1C2CCN(CC2)C1C(c1ccccc1)c1ccccc1)c1ccccc1 (single isomer, unassigned) [4 (ISOMER B), E-3-[Methylene(hydroxymethyl)phenyl]-2-benzhydryl quinuclidine]",200

# Same assay, conditions: IC50 @ NK1R, 125I-SP displacement
row,Compound,IC50 [nM]
1,"OC(C=C1C2CCN(CC2)C1C(c1ccccc1)c1ccccc1)c1ccc(F)cc1 (single isomer, unassigned) [2 (ISOMER B), E-[3-[Methylene(4-fluorophenyl)hydroxymethyl]-2-benzhydryl)quinuclidine]",197
2,"COc1ccccc1C(O)C=C1C2CCN(CC2)C1C(c1ccccc1)c1ccccc1 (single isomer, unassigned) [1 (ISOMER A)]",50
3,"Cc1cc(C)cc(C(O)C=C2C3CCN(CC3)C2C(c2ccccc2)c2ccccc2)c1 (stereo not drawn) [Example 13, E-[3-Methylene(3,5-dimethylphenyl)hydroxymethyl]-2-benzhydryl quinuclidine]",13
4,"COc1ccccc1C(O)C=C1C2CCN(CC2)C1C(c1ccccc1)c1ccccc1 (single isomer, unassigned) [1 (ISOMER B)]",130
5,"C(Cc1ccccc1)=C1C2CCN(CC2)C1C(c1ccccc1)c1ccccc1 (stereo not drawn) [Example 5, E-3-[Methylenebenzyl]-2-benzhydryl quinuclidine]",170
6,"OC(C=C1C2CCN(CC2)C1C(c1ccccc1)c1ccccc1)c1cccc(C(F)(F)F)c1 (single isomer, unassigned) [3 (ISOMER B), E-3-[Methylene(3-trifluoromethylphenyl)hydroxymethyl]-2-benzyhydryl quinuclidine]",110
7,"OC(C=C1C2CCN(CC2)C1C(c1ccccc1)c1ccccc1)c1cccc(C(F)(F)F)c1 (single isomer, unassigned) [3 (ISOMER A), E-3-[Methylene(3-trifluoromethylphenyl)hydroxymethyl]-2-benzyhydryl quinuclidine]",30
